Assay results taken from patent US20100240746A1, “STEREOISOMERS OF TRICYCLODECAN-9-YL-XANTHOGENATE” (LUMAVITA AG, priority 2007, published 2010).
Values after ≈ are worked out from the molar mass of the structure shown.

Columns and labels:
[1] = test system: HPV-31 specific DNA in HPV-31-infected CIN612 9E keratinocytes; assay: Short-term study, inhibition of HPV-31 specific DNA (Southern Blot); assay type: cell-based, human papilloma virus; conditions: Human papillomavirus, Keratinocyte; at 32 μg/mL, 72 hrs
Procedure: (§1) The inhibitory activities of optically active (−)-enantiomer 1A against human papilloma virus were evaluated using HPV-31-infected CIN612 9E keratinocytes (Meyers et al., Science 1992, 257, 971-973).
Effect on HPV-31 specific DNA and RNA. HPV-31 infected cells (3×10^6) were dispensed into 14.5 cm dishes containing fresh E culture medium and 1×10^6 mitomycin C-treated J2 3T3 fibroblast feeders. After 6 hrs, fresh medium containing 0.85 g/L NaHCO3 and a test compound at a series of concentrations (0, 0.5, 1, 2, 4, 8, 16, and 32 μg/mL) were added. All samples were tested in duplicates at each concentration. After incubation at 37° C. for 72 hrs, the feeder cells were removed with 4 mM EDTA, and DNA and RNA was then isolated. The isolated DNA and RNA were analyzed in Southern and Northern Blot gels for HPV-31 specific sequences. Human A431 epithelial cancer cells were used as HPV-uninfected negative control. X-ray films were scanned and optical densities of HPV-31 specific DNA and major mRNA species were integrated.
Dose response curves were established by plotting integrated values against the concentrations of the test compound.

[2] = test system: bovine papilloma virus type I (BPV-1)-transformed HEF (HEF-BPV); assay: Inhibition of bovine papilloma virus, BPV-infected hamster embryo fibroblasts (HEF) cell proliferation assay; assay type: cell-based; conditions: HEF-BPV, 72 hr, 37° C., pH 6.8
Procedure: Briefly, hamster embryo fibroblasts and bovine papilloma virus type I (BPV-1)-transformed HEF (HEF-BPV) were grown in Eagle's basal medium. […] and HEF cells were seeded in 96-well plates at a density of 0.5×10^6 cells per plate in DMEM cell culture medium containing 10% fetal calf serum at pH 6.8. The plates were then incubated in the presence of 5% CO2 in 100% humidity at 37° C. After 6 hr, the cell culture medium in the plates was exchanged with fresh DMEM cell culture medium containing test compounds at a series of concentrations. The plates were incubated at 37° C. for additional 72 hr. Cells in the plates were then washed with PBS, fixed with 3% formaldehyde solution containing 0.9% NaCl for 1 min, washed by water for 10 sec, and dried overnight. For detection, the plates were stained with crystal violet solution for 5 min at room temperature, washed 5 times with water, and dried at room temperature overnight. After adding ethanol/acetic acid (99:1, v/v, […]) to each well, the plates were measured at 595 nm using an ELISA reader.

[3] = test system: HPV-31-infected CIN612 9E keratinocytes; assay: Short-term study, effect on cell proliferation of HPV-31-infected keratinocytes; assay type: cell-based, human papilloma virus; conditions: Human papillomavirus, Keratinocyte; 72 hrs, 37° C.; 50% of uninhibited growth
Procedure: as §1
Effect on cell proliferation. HPV-31 infected cells were seeded in 96-well plates containing 1×10^6 mitomycin C treated 3T3 cells (1×10^4 cells/well), at a density of 0.5×10^6 cells per plate (0.5×10^4 cells/well) in E medium. After the plates were incubated in a CO2 incubator under 5% CO2 at 37° C. in 100% humidity for six hrs, the cell culture medium was removed and fresh E medium containing 0.85 g/L NaHCO3 and a test compound at a series of concentrations (0, 0.5, 1, 2, 4, 8, 16, 32, 64, and 128 μg/mL), or positive control (interferon γ at 200 IU/mL) was added. […] After the plates were dried on blotting paper upside down overnight, 0.1 mL of ethanol/acetic acid (99:1) was added to each well and optical density at 595 nm was determined in an ELISA reader.
Dose response curves were established by plotting growth against concentrations of the test compound or control. ICso values were determined from the dose response curves from crossing points of the dose response curves with a line parallel to the x-axis corresponding to 50% of uninhibited growth.

[4] = test system: Herpes simplex virus type-2 (HSV-2); assay: Inhibition of HSV-2 (plaque assay; Calu-6 infected, RITA cells for plaques); assay type: cell-based
Procedure: Calu-6 cells and RITA cells were grown in DMEM cell culture medium containing 10% fetal calf serum in CO2 incubator under 5% CO2 at 37° C. with 100% humidity.
For HSV-2 inhibition, Calu-6 cells were seeded in 96 well plates at a density of 3×10^6 cells per plate in the DMEM cell culture medium. The plates were incubated at 37° C. in the presence of 5% CO2 for 24 hr. The DMEM cell culture medium in the plates was removed and the cells were infected with Herpes simplex virus type-2 at 50 plaque forming units per well. After incubation at 37° C. for 60 min, test compounds in DMEM cell culture medium at a series of concentrations were added. The plates were incubated at 37° C. in the presence of 5% CO2 for 48 hr. The plates were frozen at −20° C. prior to further analysis. After thawing at room temperature, supernatants containing infectious virus particles were prepared by centrifuging the supernatant from each well at 18,000 g at 4° C. for 5 min. The supernatant was further diluted before assay.
RITA cells were seeded in 24 well Linbra plates at a density of 4×10^6 cells per plate in 2 mL of DMEM cell culture medium. The plates were incubated at 37° C. in the presence of 5% CO2 for 24 hr. After the removal of the cell culture medium, 0.1 mL of the diluted supernatants was added and the plates were incubated at 37 C for 1 hr. DMEM cell medium containing 10% fetal calf serum and 0.5% methyl cellulose was added and the plates were incubated at 37 for 48 hr. The plates were then washed with PBS, fixed with 3% formaldehyde solution containing 0.9% NaCl for 1 min, washed by water for 10 sec, and dried overnight. For detection, the plates were then stained with crystal violet solution for 5 min at room temperature, washed 5 times with water, and dried at room temperature overnight. The number of plaques was determined macroscopically. The number of plaques per well was then multiplied with the dilution factor. Dose response curves were obtained by plotting the number of plaques/0.1 mL against compound concentration. The therapeutic index was also calculated for each compound by dividing LD50 with IC50.

Compound: S=C(S)OC1CC2CC1C1CCCC21 (single isomer, unassigned; (-)) [(−)-Enantiomer 1A, (−)-O-exo/C-exo-tricyclo[5.2.1.0^2,6]-dec-9-yl-xanthic acid]
- inhibition at 32 µg/mL [1]: 37.5%
- IC50 [2]: 11.07 ± 0.18 µg/mL (≈ 48.5 µM)
- EC50 [3]: 16 µg/mL (≈ 70.1 µM)
- IC50 ([4]; Calu-6 cells, 48 hr, 50 plaque forming units per well): 9.08 ± 3.40 µg/mL (≈ 39.8 µM)
- Therapeutic Index ([4]; LD50 (Calu-6) divided by IC50 (HSV-2), 2880 min): 10.4
